Test [1] has as its system human hair explants. Put plainly: Growth (length) of isolated human hairs maintained in ex vivo survival. It counts as cell-based. The procedure:
(§1) Study of the stimulating activity of tetrapeptide AcSDKP on the growth of isolated hairs maintained in a state of ex vivo survival. This study was conducted on 66 human hair explants obtained from scalp-plasty.
(§2) Hairs comprised of hair follicles were isolated by micro dissection and individually placed in wells (96-well culture plate) and maintained in survival for 15 days under conventional tissue culturing conditions (37° C., 5% CO2) in Williams medium.
(§3) Tetrapeptide AcSDKP added to the culture medium was tested at three concentrations: 10^−4 M, 10^−7 M and 10^−10 M. Minoxidil (2/1 diamino 6-piperidinopyrimidine 3-oxide) at a concentration of 10^−5 M was used as a positive control.
Culture mediums containing the compounds to be tested were renewed every three days.
Hairs were photographed using a microscope and a CCD camera coupled to acquisition software and archiving.
Each hair was measured on D0, D3, D6, D8, D10, D13 and D15 using a LEICA IM1000 measurement module to give measurements in μm.
Each hair was photographed and its length evaluated using software giving values in μm.

Test [2] concerns cells in mitosis (Ki67) in epithelial sheath of human hair explants. As to the kind of experiment: Anti-Ki67 immunolabelling of cells in mitosis along the epithelial sheath of hairs. It counts as cell-based. Particulars: for increase in number of cells in mitosis compared to control hair: D8 of treatment. Here is the method: as §1, §2, §3
(§4) On D8 and D15 of treatment, six hairs from each batch (untreated control, Minoxidil, +AcSDKP 10^−4 M, +AcSDKP 10^−7 M, +AcSDKP 10^−10 M) were removed and prepared for histological study.
(§5) Three explants from each batch were fixed in ordinary Bouin and the three other hairs were frozen and stored at −80° C.
In addition to measurements of the length of each hair, the general morphology of each hair was analysed and the expression of laminin 5 and collagen IV, two constituents of the basal membrane, was evaluated. Moreover, immunolabeling with anti-Ki67 antibodies (nuclear protein expressed in growing cells) was carried out of cells in mitosis in order to establish the mitotic index of follicle structures.
This study was conducted on cuts of frozen hairs.

Test [3] has as its system epithelial sheaths of human hair explants. As to the kind of experiment: General morphology of hair histological cuts stained with Masson Trichromium (neo-keratinocytes). It counts as cell-based. The procedure:
as §1, §2, §3, §4, §5
Analysis of the general morphology of histological cuts stained with Masson Trichromium focusing on the area between the opening of the sebaceous glands and the hair bulb.
Hairs cultured on D0 naturally undergo changes during survival as is observed after an in vivo graft. The restructuring effect of AcSDKP was visualised through the appearance of neo-keratinocytes along the conjunctival sheath which migrate from the bulge and to a lesser extent from the bulb, two regions where stem cells are found. […] This effect leads to clear appearance of neo-keratinocytes along the length of the hair, from the epidermis to the bulb. The structure of the neo-keratinocytes formed in this way is uniform and stratified. It varies as a function of treatment time and AcSDKP concentration. The clearest activity was found on D15 of treatment with AcSDKP at 10^−10 M.

Test [4] has as its system type IV collagen. As to the kind of experiment: Immunolabelling of type IV collagen on frozen hair cuts. It counts as cell-based, human. Here is the method:
as §1, §2, §3
On D8 and D15 of treatment, six hairs from each batch (untreated control, Minoxidil, +AcSDKP 10^−4 M, +AcSDKP 10^−7 M, +AcSDKP 10^−10 M) were removed and prepared for histological study. […]
In addition to measurements of the length of each hair, the general morphology of each hair was analysed and the expression of laminin 5 and collagen IV, two constituents of the basal membrane, was evaluated. […]
Immunolabelling of type IV collagen was carried out on frozen cuts of the control hairs and hairs treated with AcSDKP or Minoxidil in order to quantify this constituent of the basal membrane which separates the dermal compartment from the epithelial compartment.

Test [5] has as its system laminin 5. As to the kind of experiment: Immunolabelling of laminin 5 in hair cuts. It counts as cell-based, human. The procedure: Study of the stimulating activity of tetrapeptide AcSDKP on the growth of isolated hairs maintained in a state of ex vivo survival. This study was conducted on 66 human hair explants obtained from scalp-plasty. Hairs comprised of hair follicles were isolated by micro dissection and individually placed in wells (96-well culture plate) and maintained in survival for 15 days under conventional tissue culturing conditions (37° C., 5% CO2) in Williams medium. Tetrapeptide AcSDKP added to the culture medium was tested at three concentrations: 10^−4 M, 10^−7 M and 10^−10 M. Minoxidil (2/1 diamino 6-piperidinopyrimidine 3-oxide) at a concentration of 10^−5 M was used as a positive control. On D8 and D15 of treatment, six hairs from each batch (untreated control, Minoxidil, +AcSDKP 10^−4 M, +AcSDKP 10^−7 M, +AcSDKP 10^−10 M) were removed and prepared for histological study. Three explants from each batch were fixed in ordinary Bouin and the three other hairs were frozen and stored at −80° C. In addition to measurements of the length of each hair, the general morphology of each hair was analysed and the expression of laminin 5 and collagen IV, two constituents of the basal membrane, was evaluated. Moreover, immunolabeling with anti-Ki67 antibodies (nuclear protein expressed in growing cells) was carried out of cells in mitosis in order to establish the mitotic index of follicle structures. Laminin 5, another constituent of the basal membrane, is present in the bulb around the dermal papilla as well as in the median section of hair. […] Nevertheless, expression of laminin 5 was higher on D15 with AcSDKP at 10^−7 M (FIG. 4B).

The subject of test [6] is keratin 19 (CK19). Put plainly: Immunolabelling of keratin 19 (CK19), epithelial stem cell marker, on frozen hair cuts. It counts as cell-based, human. Here is the method:
as §1, §2, §3, §4, §5
Immunolabeling of keratin 19 (CK19) was carried out on frozen cuts of control hairs and hairs treated with AcSDKP or Minoxidil in order to evaluate the proportion of undifferentiated primitive cells (or even stem cells) present in the external epithelial sheaths of the hair follicles. […]

From patent US8080524B2, “Agent for slowing hair loss and/or stimulating hair growth” (Centre National de la Recherche Scientifique (CNRS), priority 2005, dated 2011) come the findings set out here.

Residues, ends and D or L forms follow the SMILES beside them.

For `CC(=O)N[C@@H](CO)C(=O)N[C@@H](CC(=O)O)C(=O)N[C@@H](CCCCN)C(=O)N1CCC[C@H]1C(=O)O` [AcSDKP, CH3CO-Ser-Asp-Lys-Pro-OH] (Ac-SDKP-OH), the “hair growth (length of hair)” value in test [1] (AcSDKP 10^−10 M in culture medium, D15 of treatment) is recorded as “significantly stimulates hair growth”. Besides, in test [1] (AcSDKP at higher concentrations (10^−4 M, 10^−7 M), D15), the “hair growth (difference in the hair shafts)” value was “no significant difference”. The “Average number of cells in mitosis per mm of hair” value is listed as 35.4 per mm of hair in test [2] (10^−4 M, D8); 23.4 per mm of hair in test [2] (10^−4 M, D15); 34 per mm of hair in test [2] (10^−7 M, D8); 21.5 per mm of hair in test [2] (10^−7 M, D15); 52.6 per mm of hair in test [2] (10^−10 M, D8); 29.3 per mm of hair in test [2] (10^−10 M, D15). The “increase in number of cells in mitosis compared to control hair” value in test [2] (10^−10 M) is listed as “+300%”. In addition, the “number of cells in mitosis in treated hair compared to control hair” value in test [2] (three concentrations tested (10^−4 M, 10^−7 M, 10^−10 M)) is reported as “significantly increases”. For the same molecule, in test [3] (10^−4 M, 10^−7 M and especially 10^−10 M, D15), the “thickness of neo-keratinocyte structure” value is reported as “increasingly thicker”. Besides, in test [3] (10^−4 M, D8), the “adhesion of epithelial sheaths to collagen” value was “more or less detached”. For the same molecule, the neo-keratinocyte sites entry in test [3] (10^−4 M, D8) is recorded as “absent”. In addition, the “adhesion of epithelium to the underlying collagen” value in test [3] (two active concentrations (10^−7 M and 10^−10 M), D8) is on record as “adheres fully”. Besides, the “increase in collagen levels” value in test [4] (10^−10 M, D8 and D15) is given as “all the more marked”. Also, in test [4] (three concentrations tested, as of D8 of treatment), the “collagen IV in the bulb and median section of hair” value is on record as “very clear increase”. Also, in test [5] (10^−7 M, D15), the “expression of laminin 5” value is listed as “higher”. The “laminin 5 effect in the median zone of hair” value in test [5] (10^−10 M, D8 of treatment) is on record as “considerably more marked”. In addition, the “level of laminin 5 in hair structures” value in test [5] (following exposure of hair to AcSDKP) is “significant increase”. Further, the “increase in CK19 levels” value in test [6] (10^−10 M, D8 and D15 of treatment) is on record as “maximal”. Further, the “expression of CK19 compared to control hair and to hair treated with Minoxidil” value in test [6] (hair kept in survival in the presence of the tetrapeptide) was “significantly greater”.

For the molecule `Nc1cc(N2CCCCC2)nc(N)[n+]1[O-]` [Minoxidil, 2/1 diamino 6-piperidinopyrimidine 3-oxide, reference compound], the “Average number of cells in mitosis per mm of hair” value in test [2] (10^−5 M, D8) is listed as 18.5 per mm of hair; in test [2] (10^−5 M, D15), 23.3 per mm of hair. In test [2] (10^−5 M), the “increase in number of cells in mitosis compared to control hair” value was “+38%”.
